Measured values: patent US20260224486A1, “DIANHYDROHEXITOL BASED IONIZABLE LIPIDS FOR NUCLEIC ACID DELIVERY” (SANOFI PASTEUR INC., priority 2023, published 2026)

Tests used:
[1] = mRNA encapsulation efficiency of lipid nanoparticles (RiboGreen assay); format: physicochemical; conditions: hEPO mRNA LNP, Process A, Cationic Lipid:DMG-PEG2000:Cholesterol:DOPE 40:1.5:28.5:30 mol %, N/P 4
Excerpt: In embodiments, the lipid nanoparticle encapsulates a nucleic acid, optionally an mRNA encoding a peptide or protein. In embodiments, the lipid nanoparticle encapsulates an mRNA encoding a peptide or protein, optionally for use in a vaccine. In embodiments, the peptide is an antigen. As used herein, the phrase “encapsulation percentage” refers to the fraction of therapeutic agent (e.g. mRNA) that is effectively encapsulated within a liposomal-based vehicle (e.g. a lipid nanoparticle) relative to the initial fraction of therapeutic agent present in the lipid phase. In embodiments, the lipid nanoparticles have an encapsulation percentage for mRNA of at least 50%. In embodiments, the lipid nanoparticles have an encapsulation percentage for mRNA of at least 55%. In embodiments, the lipid nanoparticles have an encapsulation percentage for mRNA of at least 60%. In embodiments, the lipid nanoparticles have an encapsulation percentage for mRNA of at least 65%. In embodiments, the lipid nanoparticles have an encapsulation percentage for mRNA of at least 70%. In embodiments, the lipid nanoparticles have an encapsulation percentage for mRNA of at least 75%. In embodiments, the lipid nanoparticles have an encapsulation percentage for mRNA of at least 80%. In embodiments, the lipid nanoparticles have an encapsulation percentage for mRNA of at least 85%. In embodiments, the lipid nanoparticles have an encapsulation percentage for mRNA of at least 90%. In embodiments, the lipid nanoparticles have an encapsulation percentage for mRNA of at least 95%. In embodiments, the encapsulation percentage is calculated by performing the Ribogreen assay (Invitrogen) with and without the presence of 0.1% Triton-X 100.
(§1) Lipid nanoparticle formulations of Table 1 were prepared by Process A. All of the lipid nanoparticle formulations comprised hEPO mRNA and the different lipids (Cationic Lipid: DMG-PEG2000: Cholesterol: DOPE) in mol % ratios of 40:1.5:28.5:30 (Cationic Lipid: DMG-PEG2000: Cholesterol: DOPE).
The RiboGreen Assay is a fluorescence-based method for the determination of mRNA concentration (Total and Free) and % encapsulation using Quant-iT™ RiboGreen® RNA reagent in mRNA containing lipid nanoparticles.
• To each of the standards (Blank, mRNA-1, mRNA-2. mRNA-3, mRNA-4, mRNA-5) and Samples (free mRNA and total mRNA), add 1.0 mL of 200-fold Ribogreen Reagent Solution and gently mix by inversion. This is a 2× Dilution. • Add 200 μL of each standard and sample in triplicate using the reverse pipetting technique in a 96-well Costar Black with Clear Background Plate. Ensure no bubbles are present in the plate before the fluorescence reading. • Read the fluorescence signal using the below instrument parameters: • Read Type: Fluorescence, Bottom Read • Excitation: 485 nm; Cut-off: 515 nm; Emission: 530 nm • Plate Type: 96-well Costar Black with Clear Background
The average fluorescence from each calibration standard is plotted against the concentration to generate a linear calibration curve using the MS Excel software. The coefficient of determination (R^2) of calibration curve must be R^2>0.99.
[formula] • Where, • Y=average fluorescence value • m: slope • x: concentration (pg/mL) • c: y-intercept • Using the linear equation, calculate the concentration of free and total mRNA concentration in the test sample by replacing the y value in the equation with the average fluorescence value of each respective sample • Once the concentration is determined, the actual concentration in the sample can be back-calculated by multiplying the concentration in the test sample with the dilution factor (DF) as follows:
[formula] [formula] • Concentration of encapsulated mRNA can be determined by subtracting the concentration of free mRNA from the total mRNA. • % Encapsulation can then be calculated by taking the ratio of encapsulated mRNA over total mRNA and multiplying the result with 100.

[2] = Lipid nanoparticle size and polydispersity index by dynamic light scattering (Malvern Zetasizer); format: physicochemical; conditions: hEPO mRNA LNP, Process A, Cationic Lipid:DMG-PEG2000:Cholesterol:DOPE 40:1.5:28.5:30 mol %, N/P 4
Excerpt: The lipid nanoparticles in the examples of the present invention were formulated using Process A of WO 2018/089801 (see, e.g., Example 1 and FIG. 1 of WO 2018/089801). Process A (“A”) relates to a conventional method of encapsulating mRNA by mixing mRNA with a mixture of lipids, without first pre-forming the lipids into lipid nanoparticles. In an exemplary process, an ethanolic solution of a mixture of lipids (cationic lipid, phosphatidylethanolamine, cholesterol, and polyethylene glycol-lipid) at a fixed lipid to mRNA ratio were combined with an aqueous buffered solution of target mRNA at an acidic pH under controlled conditions to yield a suspension of uniform LNPs. After ultrafiltration and diafiltration into a suitable diluent system, the resulting nanoparticle suspensions were diluted to final concentration, filtered, and stored frozen at −80° C. until use.
as §1
The Polydispersity Index (Pdl) of lipid nanoparticles can be determined by diluting the formulation in 10% trehalose at about 0.1 mg/ml mRNA concentration and then measuring the size on Malvern zetasizer. The lipid nanoparticle size can be obtained with Malvern Zetasizer Nano-ZS.
Dynamic light scattering (DLS) measurements were performed using a Malvern Instruments Zetasizer with a backscattering detector angle of 173° and a 4-mW, 633-nm He—Ne laser (Worcestershire, UK). The samples were analyzed by diluting in 10% Trehalose and measuring the size and Poly dispersity Index (PDI) in an optical grade polystyrene cuvette.

BALB/cJ mice = assay: Delivery of hEPO mRNA by intramuscular administration of LNPs; serum hEPO by ELISA; format: in vivo, Mouse; conditions: for hEPO 24 Hr (ng/ml) Mean: mouse serum 24 hours post single IM injection of 0.1 μg hEPO mRNA LNP
Experimental: In summary, lipid screening studies were conducted with female BALB/cJ mice 6-8 weeks of age. Mice were dosed with 0.1 μg in 30 μL of LNPs by a single intramuscular (IM) injection into the gastrocnemius leg muscle. Blood samples were taken 6 and 24 hours post injection and hEPO levels were measured in the blood serum of the mice using an ELISA assay according to the manufacture's protocol.
Treatment Regimen: On Day 1, animals from Groups 1-33 were dosed via intramuscular injection while under light isoflurane anesthesia according to the study design table above. Animals in Groups 1-33 were injected with EPO mRNA LNPs in the right leg only. Groups 1 and 17 animals received MC3 control.
Interim Sample Collections: Interim whole blood (^~50 μL) was collected by tail snip or saphenous vein at 6 and 24 hours post dose administration (±5%). Blood samples were collected into serum separator tubes, allowed to clot at room temperature for at least 10 minutes, centrifuged at ambient temperature at minimum 1000 g for 10 minutes and the serum was extracted. All serum samples were stored at nominally −70° C. until analysis hEPO by the Testing Facility. The results of the EPO analysis were included in the Data Submission.
Terminal Blood Collections: Whole blood was collected via cardiac puncture into serum separator tube, allowed to clot at room temperature for at least 10 minutes, centrifuged at ambient temperature at minimum 1000 g for 10 minutes and the serum was extracted. Serum samples were stored at nominally −70° C. until analyzed for hEPO by the Test Facility.
ELISA Assay: Human erythropoietin (hEPO) levels in sera samples were determined by ELISA kit (R&D systems, Cat #DEP-00) according to the manufactory instruction and the results were included in the Data Submission. The “shaker” protocol was used. The serum samples were diluted between 1:40 and 1:100.

[3] = Table 2, isosorbide-derived lipids, mouse serum 6 hours post single IM injection of 0.1 μg hEPO mRNA LNP
[4] = Table 4, further lipids, mouse serum 6 hours post IM injection of hEPO mRNA LNP as in example 3
[5] = Table 3, isomannide-derived lipids, mouse serum 6 hours post single IM injection of 0.1 μg hEPO mRNA LNP

CCCCCCCCCCC(O)CN(CCCOC(=O)O[C@H]1CO[C@H]2[C@@H]1OC[C@H]2OC(=O)OCCCN(CC(O)CCCCCCCCCC)CC(O)CCCCCCCCCC)CC(O)CCCCCCCCCC (stereo partly drawn) [Compound 40]
Encapsulation efficiency (EE) % [1]: 66%
Polydispersity Index (PDI) [2]: 0.11
Size (nm) [2]: 84 nm
hEPO 6 Hr (ng/ml) Mean (BALB/cJ mice; [3]): 11.9 ng/mL
hEPO 24 Hr (ng/ml) Mean (BALB/cJ mice; Table 2, isosorbide-derived lipids): 7 ng/mL

CCCCCCCCCCCCC(O)CN(CCCOC(=O)N[C@H]1CO[C@H]2[C@@H]1OC[C@@H]2NC(=O)OCCCN(CC(O)CCCCCCCCCCCC)CC(O)CCCCCCCCCCCC)CC(O)CCCCCCCCCCCC (stereo partly drawn) [Compound 53]
Encapsulation efficiency (EE) % [1]: 96%
Polydispersity Index (PDI) [2]: 0.2
Size (nm) [2]: 97 nm
hEPO 6 Hr (ng/ml) Mean (BALB/cJ mice; [4]): 72.0 ng/mL

CCCCCCCCCCCCCCC(O)CN(CCCC(=O)O[C@@H]1CO[C@H]2[C@@H]1OC[C@H]2OC(=O)CCCN(CC(O)CCCCCCCCCCCCCC)CC(O)CCCCCCCCCCCCCC)CC(O)CCCCCCCCCCCCCC (stereo partly drawn) [Compound 6]
Encapsulation efficiency (EE) % [1]: 99%
Polydispersity Index (PDI) [2]: 0.16
Size (nm) [2]: 114 nm
hEPO 6 Hr (ng/mL) Mean (BALB/cJ mice; [5]): 40.9 ng/mL

CCCCCCCCCCC(O)CN(CCCOC(=O)O[C@@H]1CO[C@H]2[C@@H]1OC[C@H]2OC(=O)OCCCN(CC(O)CCCCCCCCCC)CC(O)CCCCCCCCCC)CC(O)CCCCCCCCCC (stereo partly drawn) [Compound 36]
Encapsulation efficiency (EE) % [1]: 88%
Polydispersity Index (PDI) [2]: 0.2
Size (nm) [2]: 94 nm
hEPO 6 Hr (ng/ml) Mean (BALB/cJ mice; [4]): 31.7 ng/mL

CCCCCCCCCCCCC(O)CN(CCCCC(=O)O[C@@H]1CO[C@H]2[C@@H]1OC[C@H]2OC(=O)CCCCN(CC(O)CCCCCCCCCCCC)CC(O)CCCCCCCCCCCC)CC(O)CCCCCCCCCCCC (stereo partly drawn) [Compound 5]
Encapsulation efficiency (EE) % [1]: 75%
Polydispersity Index (PDI) [2]: 0.11
Size (nm) [2]: 107 nm
hEPO 6 Hr (ng/mL) Mean (BALB/cJ mice; [5]): 26.3 ng/mL

CCCCCCCCCCC(O)CN(CCCC(=O)O[C@@H]1CO[C@H]2[C@@H]1OC[C@H]2OC(=O)CCCN(CC(O)CCCCCC(=O)OC(CCCCCCCC)CCCCCCCC)CC1CCCC(=O)O1)CC(O)CCCCCCCCCC (stereo partly drawn) [Compound 19]
Encapsulation efficiency (EE) % [1]: 74%
Polydispersity Index (PDI) [2]: 0.13
Size (nm) [2]: 94 nm
hEPO 6 Hr (ng/mL) Mean (BALB/cJ mice; [5]): 10.7 ng/mL
hEPO 24 Hr (ng/ml) Mean (BALB/cJ mice; Table 3, isomannide-derived lipids): 5.35 ng/mL

CCCCCCCCCCC(O)CN(CCCCC(=O)O[C@@H]1CO[C@H]2[C@@H]1OC[C@@H]2OC(=O)CCCN(CC(O)CCCCCCCCCC)CC(O)CCCCCCCCCC)CC(O)CCCCCCCCCC (stereo partly drawn) [Compound 25]
Encapsulation efficiency (EE) % [1]: 96%
Polydispersity Index (PDI) [2]: 0.13
Size (nm) [2]: 81 nm
hEPO 6 Hr (ng/ml) Mean (BALB/cJ mice; [3]): 42.7 ng/mL

CCCCCCCCCCCCCCC(O)CN(CCCC(=O)O[C@@H]1CO[C@H]2[C@@H]1OC[C@H]2OC(=O)CCCCN(CC(O)CCCCCCCCCC)CC(O)CCCCCCCCCC)CC(O)CCCCCCCCCCCCCC (stereo partly drawn) [Compound 8]
Encapsulation efficiency (EE) % [1]: 95%
Polydispersity Index (PDI) [2]: 0.13
Size (nm) [2]: 91 nm
hEPO 6 Hr (ng/mL) Mean (BALB/cJ mice; [5]): 25.7 ng/mL

CCCCCCCCC(O)CN(CCCCC(=O)O[C@H]1CO[C@H]2[C@@H]1OC[C@H]2OC(=O)CCCCN(CC(O)CCCCCCCC)CC(O)CCCCCCCC)CC(O)CCCCCCCC (stereo partly drawn) [Compound 21]
Encapsulation efficiency (EE) % [1]: 96%
Polydispersity Index (PDI) [2]: 0.139
Size (nm) [2]: 78 nm
hEPO 6 Hr (ng/ml) Mean (BALB/cJ mice; [3]): 31.6 ng/mL

CCCCCCCCCCCCCCCCC(O)CN(CCCCC(=O)O[C@@H]1CO[C@H]2[C@@H]1OC[C@H]2OC(=O)CCCCN(CC(O)CCCCCCCCCCCCCCCC)CC(O)CCCCCCCCCCCCCCCC)CC(O)CCCCCCCCCCCCCCCC (stereo partly drawn) [Compound 31]
Encapsulation efficiency (EE) % [1]: 97%
Polydispersity Index (PDI) [2]: 0.12
Size (nm) [2]: 98 nm
hEPO 6 Hr (ng/ml) Mean (BALB/cJ mice; [3]): 14.1 ng/mL

CCCCCCCCCCCOC(=O)CCCC(O)CN(CCCC(=O)O[C@H]1CO[C@H]2[C@@H]1OC[C@H]2OC(=O)CCCN(CC(O)CCCCCC(=O)OC(CCCCCCCC)CCCCCCCC)CC(O)CCCC(=O)OCCCCCCCCCCC)CC(O)CCCCCC(=O)OC(CCCCCCCC)CCCCCCCC (stereo partly drawn) [Compound 33]
Encapsulation efficiency (EE) % [1]: 99%
Polydispersity Index (PDI) [2]: 0.11
Size (nm) [2]: 109 nm
hEPO 6 Hr (ng/ml) Mean (BALB/cJ mice; [3]): 17.6 ng/mL

CCCCCCCCCCC(O)CN(CCCCC(=O)O[C@@H]1CO[C@H]2[C@@H]1OC[C@H]2OC(=O)CCCCN(CC(O)CCCCCCCCCC)CC(O)CCCCCCCCCC)CC(O)CCCCCCCCCC (stereo partly drawn) [Compound 4]
Encapsulation efficiency (EE) % [1]: 94%
Polydispersity Index (PDI) [2]: 0.16
Size (nm) [2]: 78 nm
hEPO 6 Hr (ng/mL) Mean (BALB/cJ mice; [5]): 43.2 ng/mL

CCCCCCCCCCC(O)CN(CCCCOC(=O)O[C@@H]1CO[C@H]2[C@@H]1OC[C@H]2OC(=O)OCCCCN(CC(O)CCCCCCCCCC)CC(O)CCCCCCCCCC)CC(O)CCCCCCCCCC (stereo partly drawn) [Compound 38]
Encapsulation efficiency (EE) % [1]: 72%
Polydispersity Index (PDI) [2]: 0.12
Size (nm) [2]: 69 nm
hEPO 6 Hr (ng/mL) Mean (BALB/cJ mice; [5]): 22.6 ng/mL
